In patent US7220756B2, “N-sulfonylheterocyclopyrrolyl-alkylamine compounds as 5-hydroxytryptamine-6 ligands” (Wyeth, priority 2003, dated 2007):

target: T1, human cloned 5-HT6 receptors (Homo sapiens, UniProt P50406); assay: 5-HT6 binding affinity, [3H]-LSD displacement; settings: membranes of Hela cells expressing human cloned 5-HT6 receptors; [3H]-LSD 3.0 nM; 120 min, room temperature; read-out: 5-HT6 Binding Ki
T1 construct: expressed in transfected cells; host or cells: HeLa cells
Procedure: The affinity of test compounds for the serotonin 5-HT6 receptor is evaluated in the following manner. Cultured Hela cells expressing human cloned 5-HT6 receptors are harvested and centrifuged at low speed (1,000×g) for 10.0 min to remove the culture media. The harvested cells are suspended in half volume of fresh physiological phosphate buffered saline solution and recentrifuged at the same speed. This operation is repeated. The collected cells are then homogenized in ten volumes of 50 mM Tris.HCl (pH 7.4) and 0.5 mM EDTA. The homogenate is centrifuged at 40,000×g for 30.0 min and the precipitate is collected. The obtained pellet is resuspended in 10 volumes of Tris.HCl buffer and recentrifuged at the same speed. The final pellet is suspended in a small volume of Tris.HCl buffer and the tissue protein content is determined in aliquots of 10–25 μl volumes. Bovine Serum Albumin is used as the standard in the protein determination according to the method described in Lowry et al., J. Biol. Chem., 193:265 (1951). The volume of the suspended cell membranes is adjusted to give a tissue protein concentration of 1.0 mg/ml of suspension. The prepared membrane suspension (10 times concentrated) is aliquoted in 1.0 ml volumes and stored at −70° C. until used in subsequent binding experiments.
The reaction is allowed to proceed in the dark for 120 min at room temperature, at which time, the bound ligand-receptor complex is filtered off on a 96 well unifilter with a Packard Filtermate® 196 Harvester. The bound complex caught on the filter disk is allowed to air dry and the radioactivity is measured in a Packard TopCount® equipped with six photomultiplier detectors, after the addition of 40.0 μl Microscint®−20 scintillant to each shallow well. The unifilter plate is heat-sealed and counted in a PackardTopCount® with a tritium efficiency of 31.0%.
Binding in the presence of varying concentrations of test compound is expressed as a percentage of specific binding in the absence of test compound. The results are plotted as log % bound versus log concentration of test compound. […] A linear regression line of data points is plotted, from which the IC50 value is determined and the Ki value is determined based upon the following equation: Ki=IC50/(1+L/KD) where L is the concentration of the radioactive ligand used and KD is the dissociation constant of the ligand for the receptor, both expressed in nM.

T1 sequence (P50406 whole entry): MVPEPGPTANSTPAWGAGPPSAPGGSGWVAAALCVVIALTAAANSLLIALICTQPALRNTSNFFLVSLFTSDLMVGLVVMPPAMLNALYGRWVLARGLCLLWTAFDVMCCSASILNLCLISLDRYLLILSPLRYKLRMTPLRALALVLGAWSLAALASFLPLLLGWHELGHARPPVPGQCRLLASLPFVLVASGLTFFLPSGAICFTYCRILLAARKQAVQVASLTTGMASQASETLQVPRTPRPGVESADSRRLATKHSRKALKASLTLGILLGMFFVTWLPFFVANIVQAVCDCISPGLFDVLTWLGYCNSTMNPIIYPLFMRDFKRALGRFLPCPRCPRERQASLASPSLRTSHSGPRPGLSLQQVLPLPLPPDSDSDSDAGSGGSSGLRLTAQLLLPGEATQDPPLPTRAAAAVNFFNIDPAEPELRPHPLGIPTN

Going from `COc1ccc(S(=O)(=O)n2cc(CCN(C)C)c3ccsc32)cc1` [Example 63, N,N-dimethyl-2-{[6-(4-methoxyphenyl)sulfonyl]-6H-thieno[2,3-b]pyrrol-4-yl}ethyl-amine] to `NCCc1cn(S(=O)(=O)c2ccc3ccccc3c2)c2ccsc12` [Example 66], the Ki rises from 3.7 ± 0.1 nM to 9.2 ± 1 nM (2.5-fold). The first binds more tightly here.

Compared with `COc1cccc(S(=O)(=O)n2cc(CCN)c3sccc32)c1` [Example 67, 2-{[4-(3-methoxyphenyl)sulfonyl]-4H-thieno[3,2-b]pyrrol-6-yl}ethylamine], `Cc1c(S(=O)(=O)n2cc(CCN)c3sccc32)sc2ccc(Cl)cc12` [Example 68] is 12-fold higher in Ki: 2 ± 0.1 nM for the first, 25 ± 1 nM for the second.

Going from `CN(C)CCc1cn(S(=O)(=O)c2ccccc2)c2ccsc12` [Example 70] to `CN(C)CCc1cn(S(=O)(=O)c2cccc(C(F)(F)F)c2)c2ccsc12` [Example 71], the Ki rises from 1.2 ± 0.1 nM to 3 ± 0.2 nM (2.5-fold). The first binds more tightly here.

Going from `CN(C)CCc1cn(S(=O)(=O)c2c(Cl)nc3sccn23)c2ccsc12` [Example 74] to `COc1cccc(S(=O)(=O)n2cc(CCN(C)C)c3sccc32)c1` [Example 76], the Ki rises from 0.2 nM to 1.3 ± 0.1 nM (6.5-fold).

Compared with `Cc1c(S(=O)(=O)n2cc(CCN(C)C)c3sccc32)sc2ccc(Cl)cc12` [Example 77], `CN(C)CCc1cn(S(=O)(=O)c2ccccc2F)c2ccsc12` [Example 78] is 12-fold lower in Ki: 24.3 ± 1.5 nM for the first, 2.1 ± 0.1 nM for the second.

First: CN(C)CCc1cn(S(=O)(=O)c2cccc(F)c2)c2ccsc12 [Example 79]
Second: N,N-dimethyl-2-[6-(2-naphthylsufonyl)-6H-thieno[2,3-b]pyrrol-4-yl]ethylamine [Example 43]
The Ki of the first is 2.8-fold lower: 0.9 nM for the first, 2.5 ± 0.2 nM for the second. The first binds more tightly here.

First: N,N-dimethyl-2-{[6-(2,3-dichlorophenyl)sulfonyl]-6H-thieno[2,3-b]pyrrol-4-yl}ethyl-amine [Example 53]
Second: N,N-dimethyl-2-{[6-(2,6-dichloroimidazo[2,1-b]thiazol-5-yl)sulfonyl]-6H-thieno[2,3-b]pyrrol-4-yl}ethylamine [Example 51]
The Ki of the first is 2.3-fold lower: 3 ± 0.1 nM for the first, 6.8 ± 0.6 nM for the second.

First: N,N-dimethyl-2-{[6-(2-chloroimidazo[1,2-a]pyridin-3-yl)sulfonyl]-6H-thieno[2,3-b]pyrrol-4-yl}ethylamine [Example 50]
Second: N,N-dimethyl-2-{[6-(2-chlorophenyl)sulfonyl]-6H-thieno[2,3-b]pyrrol-4-yl}ethylamine [Example 48]
The Ki of the first is 2.6-fold lower: 2.1 ± 0.1 nM for the first, 5.5 ± 0.5 nM for the second.

Compared with “N,N-dimethyl-2-{[6-(3-bromophenyl)sulfonyl]-6H-thieno[2,3-b]pyrrol-4-yl}-ethylamine [Example 54]”, “N,N-dimethyl-2-{[6-(3-chloro-2-methylphenyl)sulfonyl]-6H-thieno[2,3-b]pyrrol-4-yl}-ethylamine [Example 64]” is 3.5-fold higher in Ki: 1.7 ± 0.1 nM for the first, 5.9 ± 1.4 nM for the second.

Compared with “N,N-dimethyl-2-{[6-(3-chlorophenyl)sulfonyl]-6H-thieno[2,3-b]pyrrol-4-yl}ethylamine [Example 40]”, “N,N-dimethyl-2-{[6-(4,5-dichlorothien-2-yl)sulfonyl]-6H-thieno[2,3-b]pyrrol-4-yl]-ethyl]-amine [Example 57]” is 3.1-fold higher in Ki: 1.6 ± 0.3 nM for the first, 4.9 ± 0.3 nM for the second. The first binds more tightly here.

Compared with “N,N-dimethyl-2-{[6-(4-chlorophenyl)sulfonyl]-6H-thieno[2,3-b]pyrrol-4-yl}ethylamine [Example 52]”, “N,N-dimethyl-2-{[6-(5-bromothien-2-yl)sulfonyl]-6H-thieno[2,3-b]pyrrol-4-ylethyl}-amine [Example 55]” is 2.4-fold lower in Ki: 2.6 ± 0.2 nM for the first, 1.1 ± 0.1 nM for the second. The second binds more tightly here.

“N,N-dimethyl-2-{[6-(5-chlorothien-2-yl)sulfonyl]-6H-thieno[2,3-b]pyrrol-4-yl]-ethyl}-amine [Example 41]” and “N,N-dimethyl-2-{[6-(6-chloroimidazo[2,1-b][1,3]thiazol-5-yl)sulfonyl]-6H-thieno[2,3-b]pyrrol-4-yl}ethylamine [Example 42]” are within 1.5-fold of each other in Ki: 1.3 ± 0.1 nM for the first, 0.9 ± 0.1 nM for the second.

“N,N-dimethyl-2-{[6-(imidazo[2,1-b][1,3]thiazol-5-yl)sulfonyl]-6H-thieno[2,3-b]pyrrol-4-yl}-ethylamine [Example 49]” gave a Ki of 1.1 ± 0.1 nM.
